According to patent US8221993B2, “Methods of detecting methyl transferase activity and methods of screening for methyl transferase activity modulators” (Onco Therapy Science, Inc., priority 2004, dated 2012):

What was measured:
Type in all cases: biochemical
[1] = biological target: T1, ZNFN3A1 (Homo sapiens, UniProt Q9H7B4, K13N); experiment: In vitro histone H3-K4 methyltransferase assay, peptide competition; set-up: made in house; host or cells: transfected mammalian cells (293T), anti-Flag immunoprecipitate; conditions: recombinant histone H3, SAM and HSP90A, addition of competitor peptide, FIG. 2b
T1 sequence (Q9H7B4 1-428 K13N): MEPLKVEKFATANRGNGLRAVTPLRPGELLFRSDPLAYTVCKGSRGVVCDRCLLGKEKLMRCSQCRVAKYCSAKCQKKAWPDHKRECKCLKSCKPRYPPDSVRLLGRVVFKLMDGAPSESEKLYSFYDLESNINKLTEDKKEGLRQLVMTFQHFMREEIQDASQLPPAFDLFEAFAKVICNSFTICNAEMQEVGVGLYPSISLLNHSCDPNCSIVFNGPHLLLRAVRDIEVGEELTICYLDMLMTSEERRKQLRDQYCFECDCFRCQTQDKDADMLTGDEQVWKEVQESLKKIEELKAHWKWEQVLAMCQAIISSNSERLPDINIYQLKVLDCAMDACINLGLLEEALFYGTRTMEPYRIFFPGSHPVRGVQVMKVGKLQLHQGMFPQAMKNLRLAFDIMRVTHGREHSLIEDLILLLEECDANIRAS
Procedure: H3-K4 specific methyltransferase activity was examined by western blot analysis of recombinant Xenopus H3 protein (UBI) incubated with the immunoprecipitants in the presence of 20 μM unlabeled S-adenosyl-L-methionine (SAM) and 2 μg of HSP90A for 1 hr at 30° C., using antibodies against mono-methylated (Abcam; ab8895), di-methylated (Abcam; ab7766), tri-methylated (Abcam; ab8580) H3-K4, total H3 (Abcam; ab1791), or tri-methylated H3-K9 (UBI; 07523). Lysates of cells transfected with plasmid expressing Flag-tagged wild-type ZNFN3A1, mutant ZNFN3A1, SET7/9, SUV39H1, or mock were immunoprecipitated with anti-Flag antibody (Sigma). Peptides to di-methylated H3-K4 (Abcam; ab7768, ARTK-Me2-QTAR-GGC) and di-methylated H3-K9 (Abcam; ab1772, QTARK-Me2-ST-GGC) were used for competition assay. Recombinant ZNFN3A1 was expressed in E. coli bacteria with plasmids expressing GST-fused ZNFN3A1 or in Sf9 cells with plasmids expressing HA-tagged ZNFN3A1. H3-methyltransferase activity was also analyzed in the presence or absence of 0.04 U SAHH (Sigma) using immunoprecipitated ZNFN3A1 protein or recombinant ZNFN3A1 purified from Sf9 cells.
Since proteins containing SET domain play a crucial role in methylation of histone H3 lysine 4 (H3-K4) or lysine 9 (H3-K9), we investigated whether ZNFN3A1 has an ability to methylate H3-K4 or H3-K9. […]

[2] = biological target: T1, ZNFN3A1; experiment: In vitro HMTase assay of SET domain of ZNFN3A1 with/without recombinant HSP90A; set-up: made in house; host or cells: transfected mammalian cells (293T), anti-Flag immunoprecipitate; conditions: wild-type SET of ZNFN3A1, SAM and histones, with recombinant HSP90A, FIG. 1c lane 4 and 5
Procedure: (§1) 293T cells were transfected with plasmid expressing Flag-tagged ZNFN3A1 (pFLAG-CMV-ZNFN3A1), SET7 protein or mock, and purified tagged proteins by immunoprecipitation with anti-Flag antibody. In vitro HMTase assay was performed according to the protocol (1) with a slight modification. Briefly, immunoprecipitated protein was incubated with 25 μg of free histones (mixture of H3, H2B, H2A and H4; Roche) as substrates and 2.5 μCi S-adenosyl-L-[methyl-^3H] methionine as methyl donor in a mixture of 40 μl of methylase activity buffer (50 mM Tris-HCl pH 8.5, 20 mM KCl, 10 mM MgCl2, 10 mM β-mercaptoethanol, 250 mM sucrose), for 60 min at 37° C. […]
Proteins containing the wild-type SET domain of ZNFN3A1 and two forms of mutant protein that lacked one of the two regions were prepared, and cross-linked equal amount of each protein with [^3H]-labeled SAM by exposure to UV-radiation. […] The wild-type SET or control recombinant protein of SET7 was further incubated with [^3H]-labeled SAM and a mixture of histones as substrates, and labeled protein after the separation on SDS-PAGE was measured. As expected, a strong band corresponding to [^3H]-labeled histone H3 protein by the control SET7 (FIG. 1c, lane 3) was detected. When substrates were incubated with the wild-type SET of ZNFN3A1, a faint band corresponding to labeled histone H3 was detected, which was not observed with mock (FIG. 1c, lane 1 and 2). […]

[3] = biological target: T1, ZNFN3A1; experiment: In vitro histone H3 methyltransferase activity in the presence or absence of SAHH; set-up: made in house; host or cells: 293T cells transfected with pFLAG-CMV-ZNFN3A1, anti-Flag immunoprecipitate; conditions: presence versus absence of SAHH, FIG. 3d
Procedure: as §1
H3-K4 specific methyltransferase activity was examined by western blot analysis of recombinant Xenopus H3 protein (UBI) incubated with the immunoprecipitants in the presence of 20 μM unlabeled S-adenosyl-L-methionine (SAM) and 2 μg of HSP90A for 1 hr at 30° C., using antibodies against mono-methylated (Abcam; ab8895), di-methylated (Abcam; ab7766), tri-methylated (Abcam; ab8580) H3-K4, total H3 (Abcam; ab1791), or tri-methylated H3-K9 (UBI; 07523). […] H3-methyltransferase activity was also analyzed in the presence or absence of 0.04 U SAHH (Sigma) using immunoprecipitated ZNFN3A1 protein or recombinant ZNFN3A1 purified from Sf9 cells. […]

Substance | di- and tri-methylation of H3-K4 by wild-type ZNFN3A1 [1] | also measured
ARTK-Me2-QTAR-GGC [di-methylated H3-K4 peptides] | completely inhibited | –
HSP90A: recombinant 90-kD heat shock protein, interacting protein of ZNFN3A1 | – | methyl transferase activity onto histone H3 [2]: enhanced methyl transferase activity
QTARK-Me2-ST-GGC [di-methylated H3-K9 peptides] | unaffected | –
S-adenosyl homocysteine hydrolase [SAHH] | – | H3 methyltransferase activity of Flag-tagged ZNFN3A1 [3]: significantly higher
